Data as given in the NIST ThermoML archive (doi:10.1016/j.fluid.2016.02.031).

Assays:
[1] = xn = mol fraction of the nth substance listed; settings: 100 kPa, Liquid, x2 = 0; for viscosity: Concentric cylinders viscometry; for mass density: Vibrating tube method
[2] = refractive index (Na D-line) (dimensionless); xn = mol fraction of the nth substance listed; settings: 100 kPa, Liquid, Standard Abbe refractometry, x2 = 0

CCC(C)=O [butanone] + c1ccncc1
Settings | mass density, [1] [kg/m3] | refractive index, [2] | viscosity, [1] [mPa·s]
288.15 K | 810.067 | 1.38157 | 0.4308
293.15 K | 804.863 | 1.37901 | 0.4152
298.15 K | 799.632 | 1.37642 | 0.3992
303.15 K | 794.371 | 1.37386 | 0.3826
308.15 K | 789.078 | 1.37125 | 0.3665
313.15 K | 783.752 | 1.36857 | 0.3499
318.15 K | 778.389 | 1.36589 | 0.3336
323.15 K | 772.985 | 1.36315 | 0.3174
328.15 K | 767.539 | 1.36042 | 0.3001
333.15 K | 762.048 | 1.35746 | 0.2829

CCC(C)=O [butanone] + OCCCO
Settings | mass density, [1] [kg/m3] | refractive index, [2] | viscosity, [1] [mPa·s]
288.15 K | 810.067 | 1.38157 | 0.4308
293.15 K | 804.863 | 1.37901 | 0.4152
298.15 K | 799.632 | 1.37642 | 0.3992
303.15 K | 794.371 | 1.37386 | 0.3826
308.15 K | 789.078 | 1.37125 | 0.3665
313.15 K | 783.752 | 1.36857 | 0.3499
318.15 K | 778.389 | 1.36589 | 0.3336
323.15 K | 772.985 | 1.36315 | 0.3174
328.15 K | 767.539 | 1.36042 | 0.3001
333.15 K | 762.048 | 1.35746 | 0.2829
